Literature values as cited in patent publication US20240166770A1, “COMPOSITIONS AND METHODS FOR INHIBITION OF CELL-PENETRATING ANTIBODIES” (Yale University, priority 2019, published 2024).
Where two headings read alike, the source gives them in different places.

Legend:
ENT2 [1] = target: T1, ENT2 (Homo sapiens, UniProt Q14542); conditions: cited from earlier work
T1 sequence (Q14542 1-456): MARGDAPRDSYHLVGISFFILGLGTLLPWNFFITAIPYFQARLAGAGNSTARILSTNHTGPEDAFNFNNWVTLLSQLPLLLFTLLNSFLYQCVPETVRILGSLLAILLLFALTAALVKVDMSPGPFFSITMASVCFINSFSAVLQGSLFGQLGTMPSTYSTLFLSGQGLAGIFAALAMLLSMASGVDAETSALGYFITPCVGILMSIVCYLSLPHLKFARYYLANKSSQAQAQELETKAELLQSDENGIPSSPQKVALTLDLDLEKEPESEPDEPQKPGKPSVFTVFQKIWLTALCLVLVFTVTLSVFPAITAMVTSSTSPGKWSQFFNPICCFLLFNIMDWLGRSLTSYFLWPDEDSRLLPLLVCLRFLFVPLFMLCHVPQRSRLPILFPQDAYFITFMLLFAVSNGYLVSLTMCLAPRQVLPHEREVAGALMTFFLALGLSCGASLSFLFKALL

hENT4 = target: T2, hENT4 (Homo sapiens, UniProt Q7RTT9); conditions: cited from earlier work
T2 sequence (Q7RTT9 1-530): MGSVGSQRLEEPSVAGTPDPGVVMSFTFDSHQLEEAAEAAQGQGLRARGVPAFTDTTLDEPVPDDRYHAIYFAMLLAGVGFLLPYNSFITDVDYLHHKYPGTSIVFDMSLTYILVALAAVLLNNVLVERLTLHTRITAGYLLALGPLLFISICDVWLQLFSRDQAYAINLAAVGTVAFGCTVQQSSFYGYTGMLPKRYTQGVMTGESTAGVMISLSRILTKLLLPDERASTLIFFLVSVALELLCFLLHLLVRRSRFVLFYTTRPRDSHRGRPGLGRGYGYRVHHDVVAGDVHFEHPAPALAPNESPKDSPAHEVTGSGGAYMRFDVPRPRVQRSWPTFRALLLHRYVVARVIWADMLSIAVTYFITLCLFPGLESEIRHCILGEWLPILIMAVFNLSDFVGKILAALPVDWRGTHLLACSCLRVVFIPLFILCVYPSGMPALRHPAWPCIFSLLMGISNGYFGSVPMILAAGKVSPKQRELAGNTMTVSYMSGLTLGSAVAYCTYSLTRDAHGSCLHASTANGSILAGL

hENT1 = target: T3, hENT1 (Homo sapiens, UniProt Q99808); conditions: cited from earlier work
T3 sequence (Q99808 1-456): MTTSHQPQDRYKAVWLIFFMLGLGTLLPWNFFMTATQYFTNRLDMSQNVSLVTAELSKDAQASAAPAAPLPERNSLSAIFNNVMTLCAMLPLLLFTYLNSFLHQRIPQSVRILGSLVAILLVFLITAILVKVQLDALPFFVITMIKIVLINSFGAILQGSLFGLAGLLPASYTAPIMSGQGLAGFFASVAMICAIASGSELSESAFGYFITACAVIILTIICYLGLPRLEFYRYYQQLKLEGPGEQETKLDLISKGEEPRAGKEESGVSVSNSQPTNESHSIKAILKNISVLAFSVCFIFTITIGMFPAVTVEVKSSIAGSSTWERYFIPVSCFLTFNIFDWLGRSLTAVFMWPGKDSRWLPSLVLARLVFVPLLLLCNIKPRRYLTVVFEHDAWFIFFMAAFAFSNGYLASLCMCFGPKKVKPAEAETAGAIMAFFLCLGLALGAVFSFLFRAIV

ENT2 [2] = target: T1, ENT2; conditions: Visser et al. 2002; cited from earlier work
[3] = Table 1, different ring systems at the 4- and 8-positions
[4] = Table 3, free hydrogen on the nitrogen of 4- and 8-position substituents
[5] = Table 2, opening chain analogues
[6] = Table 4, modification at hydroxyl groups of dipyridamole

For `OCCN(CCO)c1nc(N2CCOCC2)c2nc(N(CCO)CCO)nc(N3CCOCC3)c2n1` [compound 4], the IC50 (ENT2 [1]; [3]) is listed as 4120 nM.

In the case of `CCCNc1nc(N(CCO)CCO)nc2c(NCCC)nc(N(CCO)CCO)nc12` [compound 44], the IC50 (ENT2 [1]; [4]) is given as 3500 nM and the IC50 (hENT4; [4]) is given as 16400 nM.

In the case of `OCCN(CCO)c1nc(N(Cc2ccccc2)Cc2ccccc2)c2nc(N(CCO)CCO)nc(N(Cc3ccccc3)Cc3ccccc3)c2n1` [compound 37], the IC50 (hENT4; [5]) is given as 68400 nM.

In the case of `CC(C)Nc1nc(N(CCO)CCO)nc2c(NC(C)C)nc(N(CCO)CCO)nc12` [compound 46], the IC50 (ENT2 [1]; [4]) is listed as 3020 nM and the IC50 (hENT4; [4]) is listed as 26000 nM.

For `O=COCCN(CCOC=O)c1nc(N2CCCCC2)c2nc(N(CCOC=O)CCOC=O)nc(N3CCCCC3)c2n1` [compound 74], the IC50 (ENT2 [1]; [6]) is listed as 532 nM and the IC50 (hENT1; [6]) is listed as 69.1 nM.

For `CCCCNc1nc(N(CCO)CCO)nc2c(NCCCC)nc(N(CCO)CCO)nc12` [compound 48], the IC50 (ENT2 [1]; [4]) is given as 2850 nM and the IC50 (hENT4; [4]) is given as 1880 nM.

In the case of `OCCOc1nc(N2CCCCC2)c2nc(OCCO)nc(N3CCCCC3)c2n1` [compound 72], the IC50 (ENT2 [1]; [6]) is listed as 1780 nM.

In the case of `OCCNc1nc(N2CCCCCCC2)c2nc(NCCO)nc(N3CCCCCCC3)c2n1` [compound 14], the IC50 (ENT2 [1]; [3]) is given as 5200 nM and the IC50 (hENT4; [3]) is given as 181 nM.

In the case of `OCCN(CCO)c1nc(N2CCCCCCC2)c2nc(N(CCO)CCO)nc(N3CCCCCCC3)c2n1` [compound 13], the IC50 (ENT2 [1]; [3]) is listed as 90.8 nM and the IC50 (hENT4; [3]) is listed as 404 nM.

In the case of `CCCCN(CCCC)c1nc(N(CCO)CCO)nc2c(N(CCCC)CCCC)nc(N(CCO)CCO)nc12` [compound 27], the IC50 (ENT2 [1]; [5]) is given as 3310 nM and the IC50 (hENT4; [5]) is given as 2960 nM.

In the case of `OCCNc1nc(NC2CCC2)c2nc(NCCO)nc(NC3CCC3)c2n1` [compound 63], the IC50 (ENT2 [1]; [4]) is listed as 7750 nM and the IC50 (hENT1; [4]) is listed as 1860 nM.

In the case of `CC(=O)OCCN(CCOC(C)=O)c1nc(N2CCCCC2)c2nc(N(CCOC(C)=O)CCOC(C)=O)nc(N3CCCCC3)c2n1` [compound 75], the IC50 (ENT2 [1]; [6]) is listed as 708 nM and the IC50 (hENT4; [6]) is listed as 14100 nM.

For `COc1cc(C(=O)OCCCN2CCCN(CCCOC(=O)c3cc(OC)c(OC)c(OC)c3)CC2)cc(OC)c1OC` [dilazep], the Ki (ENT2 [2]) is listed as 134000 nM.

In the case of `CC(C)CNc1nc(N(CCO)CCO)nc2c(NCC(C)C)nc(N(CCO)CCO)nc12` [compound 50], the IC50 (ENT2 [1]; [4]) is given as 1490 nM, the IC50 (hENT1; [4]) is given as 126 nM and the IC50 (hENT4; [4]) is given as 3060 nM.

In the case of `OCCN(CCO)c1nc(N2CCCCCC2)c2nc(N(CCO)CCO)nc(N3CCCCCC3)c2n1` [compound 11], the IC50 (ENT2 [1]; [3]) is given as 117 nM and the IC50 (hENT4; [3]) is given as 379 nM.

In the case of `OCCN(CCO)c1nc(N2CCCCCCCC2)c2nc(N(CCO)CCO)nc(N3CCCCCCCC3)c2n1` [compound 15], the IC50 (ENT2 [1]; [3]) is given as 2350 nM and the IC50 (hENT4; [3]) is given as 1320 nM.

In the case of `CNc1nc(N(CCO)CCO)nc2c(NC)nc(N(CCO)CCO)nc12` [compound 40], the IC50 (hENT1; [4]) is listed as 8460 nM.

For `OCCN(CCO)c1nc(NC2CCCCC2)c2nc(N(CCO)CCO)nc(NC3CCCCC3)c2n1` [compound 66], the IC50 (hENT4; [4]) is listed as 124000 nM.

For `CCCOCCN(CCOCCC)c1nc(N2CCCCC2)c2nc(N(CCOCCC)CCOCCC)nc(N3CCCCC3)c2n1` [compound 78], the IC50 (hENT4; [6]) is given as 140000 nM.

In the case of `CCCN(CCC)c1nc(N(CCO)CCO)nc2c(N(CCC)CCC)nc(N(CCO)CCO)nc12` [compound 25], the IC50 (ENT2 [1]; [5]) is listed as 3830 nM, the IC50 (hENT1; [5]) is listed as 197 nM and the IC50 (hENT4; [5]) is listed as 234 nM.

In the case of `C1CCN(c2nc(N3CCOCC3)nc3c(N4CCCCC4)nc(N4CCOCC4)nc23)CC1` [compound 73], the IC50 (hENT1; [6]) is given as 1640 nM.

For `OCCNc1nc(N2CCCCC2)c2nc(NCCO)nc(N3CCCCC3)c2n1` [compound 1], the IC50 (ENT2 [1]; [3]) is given as 7440 nM and the IC50 (hENT4; [3]) is given as 2200 nM.

For `CC(C)CCNc1nc(N(CCO)CCO)nc2c(NCCC(C)C)nc(N(CCO)CCO)nc12` [compound 56], the IC50 (ENT2 [1]; [4]) is given as 1950 nM and the IC50 (hENT4; [4]) is given as 495 nM.
